Assay results: patent US20240308976A1, “COMPOUNDS THAT MEDIATE PROTEIN DEGRADATION AND USES THEREOF” (Monte Rosa Therapeutics, Inc., priority 2021, published 2024)
pIC50: −log10 of the molar value.

Assays:
GSPT1 = target: T1, GSPT1 (Homo sapiens, UniProt P15170+Q96SW2); test: Immunofluorescence assay for activity to degrade GSPT1 in CAL-51 cells; type: cell-based; conditions: 6 h treatment, read-out: IF Class (GSPT1 degradation, DC50)
T1 construct: CAL-51 cells were purchased from DSMZ (cat. Number ACC302); host or cells: CAL-51
Procedure, shortened: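 CAL-51 cells treated 6 h with compound (30 μM to 0.1 nM), fixed, immunostained for GSPT1 with DAPI and phalloidin counterstains, imaged by high-content microscopy. Mean per-cell GSPT1 intensity normalized to controls; DC50 by non-linear regression.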

CRBN-DDB1 = CRBN-DDB1 (Homo sapiens, UniProt Q96SW2); test: Compound binding to CRBN by HTRF assay; conditions: CRBN-DDB1 2.5 nM, Cy5-Thalidomide 100 nM, 30 min at ambient temperature; read-out: HTRF Class (Cereblon binding, HTRF IC50)
Procedure, shortened: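 Cy5-thalidomide (100 nM) displacement from His-tagged CRBN-DDB1 (2.5 nM) read by terbium-cryptate HTRF (665/620 nm), in 20 mM HEPES, 20 mM NaCl, 0.2 mM TCEP, 0.2 mM EDTA, 0.005% Tween20. Compounds tested as 10-point 1:3 series, 30 min at ambient temperature. Signal normalised to DMSO and lenalidomide controls; IC50 fitted, Ki by Cheng-Prusoff.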

T1 sequence (P15170 whole entry): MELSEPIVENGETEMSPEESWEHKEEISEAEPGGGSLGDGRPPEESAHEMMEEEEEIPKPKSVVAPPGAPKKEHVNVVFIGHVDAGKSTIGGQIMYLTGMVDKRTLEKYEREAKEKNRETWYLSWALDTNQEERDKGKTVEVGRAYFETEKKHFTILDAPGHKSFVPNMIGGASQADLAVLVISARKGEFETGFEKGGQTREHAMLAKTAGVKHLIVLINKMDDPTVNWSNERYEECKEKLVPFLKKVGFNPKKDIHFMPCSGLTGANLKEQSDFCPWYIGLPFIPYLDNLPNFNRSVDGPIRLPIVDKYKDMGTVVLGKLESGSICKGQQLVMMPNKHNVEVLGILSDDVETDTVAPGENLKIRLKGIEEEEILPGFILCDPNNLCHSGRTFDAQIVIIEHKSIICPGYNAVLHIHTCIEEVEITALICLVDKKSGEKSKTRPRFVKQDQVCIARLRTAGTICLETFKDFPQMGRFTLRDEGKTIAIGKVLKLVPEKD
T1 sequence (Q96SW2 whole entry): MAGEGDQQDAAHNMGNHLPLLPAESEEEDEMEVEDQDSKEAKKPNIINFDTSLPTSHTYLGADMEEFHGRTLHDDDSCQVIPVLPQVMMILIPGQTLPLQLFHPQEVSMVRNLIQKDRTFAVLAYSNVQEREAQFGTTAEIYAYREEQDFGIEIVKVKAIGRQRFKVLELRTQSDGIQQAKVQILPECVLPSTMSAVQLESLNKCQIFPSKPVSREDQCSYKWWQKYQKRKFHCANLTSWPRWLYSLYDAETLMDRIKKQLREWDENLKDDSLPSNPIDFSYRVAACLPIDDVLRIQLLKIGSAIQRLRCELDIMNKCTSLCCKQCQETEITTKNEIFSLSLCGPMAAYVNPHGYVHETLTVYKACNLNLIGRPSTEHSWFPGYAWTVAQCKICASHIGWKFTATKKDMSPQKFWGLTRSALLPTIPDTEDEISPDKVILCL
T1 sequence (Q16531 2-1140 partner limits assumed): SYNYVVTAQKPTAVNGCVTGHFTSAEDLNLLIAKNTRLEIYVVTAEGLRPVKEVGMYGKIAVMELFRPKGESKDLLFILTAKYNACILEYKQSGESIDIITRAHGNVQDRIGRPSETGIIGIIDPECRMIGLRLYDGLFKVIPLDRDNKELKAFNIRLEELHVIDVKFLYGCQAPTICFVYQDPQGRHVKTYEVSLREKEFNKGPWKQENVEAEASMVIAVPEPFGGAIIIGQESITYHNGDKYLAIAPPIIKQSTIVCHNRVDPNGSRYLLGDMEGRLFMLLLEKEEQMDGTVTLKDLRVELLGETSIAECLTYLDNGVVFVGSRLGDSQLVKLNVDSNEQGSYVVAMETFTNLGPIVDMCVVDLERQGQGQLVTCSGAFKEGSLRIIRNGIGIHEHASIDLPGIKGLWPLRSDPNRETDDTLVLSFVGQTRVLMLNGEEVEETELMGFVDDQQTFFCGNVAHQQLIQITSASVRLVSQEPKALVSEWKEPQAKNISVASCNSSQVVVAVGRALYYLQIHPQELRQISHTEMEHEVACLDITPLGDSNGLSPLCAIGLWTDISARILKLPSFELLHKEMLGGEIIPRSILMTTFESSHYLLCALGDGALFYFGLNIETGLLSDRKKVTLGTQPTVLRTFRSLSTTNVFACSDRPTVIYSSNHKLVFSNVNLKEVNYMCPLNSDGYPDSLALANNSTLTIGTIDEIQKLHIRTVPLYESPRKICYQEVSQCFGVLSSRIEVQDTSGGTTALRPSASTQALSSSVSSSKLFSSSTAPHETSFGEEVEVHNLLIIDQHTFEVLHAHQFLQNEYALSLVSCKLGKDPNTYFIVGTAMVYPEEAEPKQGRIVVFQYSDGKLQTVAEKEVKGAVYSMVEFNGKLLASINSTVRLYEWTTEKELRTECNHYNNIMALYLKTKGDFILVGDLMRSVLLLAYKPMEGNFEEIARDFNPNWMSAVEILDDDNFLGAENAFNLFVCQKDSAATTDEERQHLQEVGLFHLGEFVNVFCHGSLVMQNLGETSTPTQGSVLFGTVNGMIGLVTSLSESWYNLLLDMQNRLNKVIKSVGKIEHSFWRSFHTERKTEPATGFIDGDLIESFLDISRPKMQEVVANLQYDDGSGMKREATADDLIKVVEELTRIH
CRBN-DDB1, sequence (Q96SW2 whole entry): as the sequence (Q96SW2 whole entry) above
CRBN-DDB1, sequence (Q16531 whole entry partner): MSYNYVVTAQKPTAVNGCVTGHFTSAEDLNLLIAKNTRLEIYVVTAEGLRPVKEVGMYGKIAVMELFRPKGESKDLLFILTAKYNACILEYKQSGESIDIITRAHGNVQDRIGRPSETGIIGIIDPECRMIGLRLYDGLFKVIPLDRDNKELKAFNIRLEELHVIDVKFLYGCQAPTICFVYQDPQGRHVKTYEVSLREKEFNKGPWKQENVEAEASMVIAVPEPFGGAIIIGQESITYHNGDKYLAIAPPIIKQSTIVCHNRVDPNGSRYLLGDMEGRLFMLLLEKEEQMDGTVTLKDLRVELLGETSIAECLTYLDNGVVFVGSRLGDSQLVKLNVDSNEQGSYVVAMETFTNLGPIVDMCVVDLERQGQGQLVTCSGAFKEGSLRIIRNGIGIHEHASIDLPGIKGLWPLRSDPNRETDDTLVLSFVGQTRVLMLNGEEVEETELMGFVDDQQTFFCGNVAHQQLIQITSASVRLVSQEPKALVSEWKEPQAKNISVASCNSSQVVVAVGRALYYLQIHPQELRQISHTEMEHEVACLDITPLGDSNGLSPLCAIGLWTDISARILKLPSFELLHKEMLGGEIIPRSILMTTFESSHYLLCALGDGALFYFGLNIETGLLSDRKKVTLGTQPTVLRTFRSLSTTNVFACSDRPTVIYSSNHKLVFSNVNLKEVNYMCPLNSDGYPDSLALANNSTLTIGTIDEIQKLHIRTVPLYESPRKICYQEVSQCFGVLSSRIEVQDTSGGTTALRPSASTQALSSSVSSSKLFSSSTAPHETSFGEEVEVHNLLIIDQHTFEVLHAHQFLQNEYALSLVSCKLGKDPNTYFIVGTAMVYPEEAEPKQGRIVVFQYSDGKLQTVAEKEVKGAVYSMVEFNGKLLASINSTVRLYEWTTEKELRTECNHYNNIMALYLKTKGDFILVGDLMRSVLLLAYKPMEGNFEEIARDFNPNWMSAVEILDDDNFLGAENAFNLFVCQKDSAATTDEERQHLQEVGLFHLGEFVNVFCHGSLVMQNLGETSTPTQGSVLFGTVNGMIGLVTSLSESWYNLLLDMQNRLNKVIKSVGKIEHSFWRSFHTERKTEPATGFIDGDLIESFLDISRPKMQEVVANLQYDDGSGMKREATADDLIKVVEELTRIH

Structure (SMILES) | DC50 (GSPT1) [nM] | pIC50 (CRBN-DDB1)
CO[C@H]1CC[C@H](NC(=O)OC2CN(c3cc(F)c(C4CCC(=O)NC4=O)c(F)c3)C2)CC1 (stereo partly drawn) [Compound 133, 1-(4-(2,6-dioxopiperidin-3-yl)-3,5-difluorophenyl)azetidin-3-yl ((1R,4R)-4-methoxycyclohexyl)carbamate] | 30 to 300 | 6.00 to 7.00
Cc1c(Cl)cc(NC(=O)NC2CN(c3cc(F)c(C4CCC(=O)NC4=O)c(F)c3)C2)cc1CN1CCOCC1 (centres unmarked) [Compound 24, 1-(3-chloro-4-methyl-5-(morpholinomethyl)phenyl)-3-(1-(4-(2,6-dioxopiperidin-3-yl)-3,5-difluorophenyl)azetidin-3-yl) urea] | ≤ 30 | ≥ 7.00
O=C1CCC(c2c(F)cc(N3CC(NC(=O)Nc4cccc(OC(F)(F)F)c4)C3)cc2F)C(=O)N1 (centres unmarked) [Compound 18, 1-(1-(4-(2,6-dioxopiperidin-3-yl)-3,5-difluorophenyl)azetidin-3-yl)-3-(3-(trifluoromethoxy)phenyl)urea] | 30 to 300 | 6.00 to 7.00
Cc1ccc(NC(=O)OC2CN(c3cc(F)c(C4CCC(=O)NC4=O)c(F)c3)C2)cc1Cl (centres unmarked) [Compound 2, 1-(4-(2,6-dioxopiperidin-3-yl)-3,5-difluorophenyl)azetidin-3-yl(3-chloro-4-methylphenyl) carbamate] | ≤ 30 | 6.00 to 7.00
O=C1CCC(c2c(F)cc(N3CC(OC(=O)N4CCCCC4)C3)cc2F)C(=O)N1 (centres unmarked) [Compound 143, 1-(4-(2,6-dioxopiperidin-3-yl)-3,5-difluorophenyl)azetidin-3-yl piperidine-1-carboxylate] | > 300 | 6.00 to 7.00
O=C1CCC(c2c(F)cc(N3CC(OC(=O)NC4CC(F)(F)C4)C3)cc2F)C(=O)N1 (centres unmarked) [Compound 88, 1-(4-(2,6-dioxopiperidin-3-yl)-3,5-difluorophenyl)azetidin-3-yl(3,3-difluorocyclobutyl)carbamate] | > 300 | 6.00 to 7.00
O=C1CCC(c2c(F)cc(N3CC(OC(=O)N[C@@H]4CCCOC4)C3)cc2F)C(=O)N1 (stereo partly drawn) [Compound 85, 1-(4-(2,6-dioxopiperidin-3-yl)-3,5-difluorophenyl)azetidin-3-yl((R)-tetrahydro-2H-pyran-3-yl)carbamate] | > 300 | 6.00 to 7.00
C[C@@H](NC(=O)OC1CN(c2cc(F)c(C3CCC(=O)NC3=O)c(F)c2)C1)c1ccccc1 (stereo partly drawn) [Compound 123, 1-(4-(2,6-dioxopiperidin-3-yl)-3,5-difluorophenyl)azetidin-3-yl((R)-1-phenylethyl)carbamate] | ≤ 30 | ≥ 7.00
CC(C)CNC(=O)OC1CN(c2cc(F)c(C3CCC(=O)NC3=O)c(F)c2)C1 (centres unmarked) [Compound 132, 1-(4-(2,6-dioxopiperidin-3-yl)-3,5-difluorophenyl)azetidin-3-yl isobutylcarbamate] | > 300 | 6.00 to 7.00
O=C1CCC(c2c(F)cc(N3CC(OC(=O)NCC4CC4)C3)cc2F)C(=O)N1 (centres unmarked) [Compound 82, 1-(4-(2,6-dioxopiperidin-3-yl)-3,5-difluorophenyl)azetidin-3-yl (cyclopropylmethyl)carbamate] | > 300 | 6.00 to 7.00
Cc1ccc(NC(=O)OC2CN(c3ccc(C4CCC(=O)NC4=O)c(F)c3)C2)cc1Cl (centres unmarked) [Compound 8, 1-(4-(2,6-dioxopiperidin-3-yl)-3-fluorophenyl) azetidin-3-yl(3-chloro-4-methylphenyl)carbamate] | ≤ 30 | 6.00 to 7.00
CC(C)(C)c1ccc(NC(=O)NC2CN(c3cc(F)c(C4CCC(=O)NC4=O)c(F)c3)C2)cn1 (centres unmarked) [Compound 12, 1-(6-(tert-butyl)pyridin-3-yl)-3-(1-(4-(2,6-dioxopiperidin-3-yl)-3,5-difluorophenyl)azetidin-3-yl)urea] | ≤ 30 | ≥ 7.00
Cc1cc(F)cc(NC(=O)OC2CN(c3cc(F)c(C4CCC(=O)NC4=O)c(F)c3)C2)c1 (centres unmarked) [Compound 78, 1-(4-(2,6-dioxopiperidin-3-yl)-3,5-difluorophenyl)azetidin-3-yl(3-fluoro-5-methylphenyl)carbamate] | ≤ 30 | 6.00 to 7.00
